Reference: US11419878B2, “Medicine obtained by combining FXR agonist and ARB” (Intercept Pharmaceuticals, Inc., priority 2016, dated 2022)

How the values were obtained:
[1] = molecular target: T1, FXR (Homo sapiens, UniProt Q96RI1); conditions: background statement; cited from earlier work
T1 sequence (Q96RI1 1-486): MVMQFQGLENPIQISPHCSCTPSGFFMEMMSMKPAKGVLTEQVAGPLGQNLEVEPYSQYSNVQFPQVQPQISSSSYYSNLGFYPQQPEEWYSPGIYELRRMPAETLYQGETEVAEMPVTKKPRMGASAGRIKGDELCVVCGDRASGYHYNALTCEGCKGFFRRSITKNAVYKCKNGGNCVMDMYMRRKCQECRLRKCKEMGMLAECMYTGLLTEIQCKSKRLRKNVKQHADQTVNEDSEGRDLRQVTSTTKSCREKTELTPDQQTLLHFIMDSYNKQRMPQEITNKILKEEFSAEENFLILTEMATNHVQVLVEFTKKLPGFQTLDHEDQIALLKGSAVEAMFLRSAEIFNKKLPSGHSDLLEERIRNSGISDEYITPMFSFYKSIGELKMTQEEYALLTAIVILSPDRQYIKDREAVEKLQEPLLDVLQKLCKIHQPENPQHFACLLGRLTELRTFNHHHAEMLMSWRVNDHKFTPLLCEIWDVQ

[2] = system: α-smooth muscle actin (α-SMA); experiment: Rat NASH model, immunohistological staining of liver sections with α-SMA antibody (HSC activation); format: in vivo; conditions: OLETF rats, PS 8 weeks, obeticholic acid 30 mg/kg/day and/or losartan 30 mg/kg/day oral; for α-SMA index (α-SI) compared to the positive control group: p<0.01
Protocol: Using the liver sections from the rats in the various groups obtained in working example 1, an immunohistochemical study by immunohistological staining with α-smooth muscle actin (α-SMA) antibody and a quantitative analysis of transforming growth factor-β1 TGF-β1) and collagen (α1(I) procollagen) mRNA expression were conducted. α-SMA is known to be an indicator (marker) of activation of hepatic stellate cells (HSCs) (also known as hepatic star cells). Moreover, activation of hepatic stellate cells (HSC), overproduction of TGF-β1 (a fibrosis-promoting cytokine) accompanying said activation, and overproduction of extracellular matrix components such as collagen are thought to play a central role in the mechanism of progressive hepatic fibrosis in NASH. For this reason, mRNA expression of TGF-β1 and collagen (α1(I) procollagen) can be a fibrosis indicator (marker).
Using the same method as described under [Histological analysis] in working example 1 above, except that immunohistological staining with α-SMA antibody was used instead of Sirius Red staining, a comparison of the micrographs among the various groups and a semiquantitative analysis of the immunohistochemical characteristics of the collected stained section images were carried out, and the blocking effect of obeticholic acid and losartan (administration groups, combined administration group) on HSC activation in the progression of hepatic fibrosis was evaluated.

[3] = system: human hepatic stellate cells (HHSC); experiment: HHSC proliferation inhibition, WST-1 cell proliferation assay; format: cell-based; conditions: AT-II 10^-6M + LPS 10^-5M; ARB 10^-6M, obeticholic acid 5×10^-6M; 24 hours; WST-1 absorbance
Protocol: The various combined effects of obeticholic acid and three types of ARBs (losartan, valsartan, and candesartan) were confirmed in an in vitro cell system experiment. Specifically, using human hepatic stellate cells (HHSC), which are implicated in the main mechanism of progression of hepatic fibrosis in NASH, the effects of administration of obeticholic acid in combination with the three ARBs of inhibiting HHSC proliferation capacity and the expression of fibrosis markers were evaluated according to the following method. Human hepatic stellate cells (HHSC) (also referred to as human hepatic star cells) Obeticholic acid (obtained from Intercept Pharmaceuticals, Inc. via Sumitomo Dainippon Pharma Co., Ltd.) was used as an FXR agonist, and commercial losartan (potassium salt of losartan; referred to in this working example simply as “losartan”) and valsartan and candesartan ([…] of candesartan; referred to in this working example simply as “candesartan”) were used as ARBs. […] The direct action of inhibiting HIISC proliferation capacity was evaluated by means of a cell proliferation assay using WST-1 reagent. […] AT-II (10^-6M) Positive control group L […]): LPS 10^-5M) Positive control group AL ([…]): (10^-6M)+LPS (10^-5M) Obeticholic acid administration (G3): AT-II (10^-6M)+LPS (10^-5M)+obeticholic acid (5×10^-6M) ARB administration (G4): AT-II (10^-6M)+LPS (10^-5M)+ARB (10^-6M) Obeticholic acid+ARB combined administration (G5): AT-II (10^-6M)+LPS (10^-5M)+obeticholic acid (5×10^-6M)+ARB (10^-6M) 3) After the cells of the above groups (G1, G2A, G2L, G2AL, G3, G4, G5) were cultured for 24 hours, respective WST-1 cell proliferation assays were conducted, and the inhibitory effect of the pharmaceutical agents on cell proliferation was evaluated. The inhibitory effect of valsartan and candesartan on HHSC proliferation was also evaluated according to steps 1)-3) above. […]

Row | Structure (SMILES) | FXR agonist action / FXR-stimulating action [1] | increase in activated hepatic stellate cells (Ac-HSCs), micrographs of α-SMA stained sections [2] | α-SMA index (α-SI) compared to the positive control group [2] | promotion of activated HHSC proliferation by AT-II and LPS, compared to positive control group AL (G2AL) [3]
1 | CC[C@H]1[C@@H](O)[C@@H]2[C@H](CC[C@]3(C)[C@@H]([C@H](C)CCC(=O)O)CC[C@@H]23)[C@@]2(C)CC[C@@H](O)C[C@@H]12 [obeticholic acid, 3α,7α-dihydroxy-6α-ethyl-5β-cholan-24-oic acid] | strongest FXR-stimulating action among the semi synthetic alkylated bile acids | moderately inhibited | moderate but significant decreases | –
2 | CCCCc1nc(Cl)c(CO)n1Cc1ccc(-c2ccccc2-c2nn[nH]n2)cc1 [losartan] | – | moderately inhibited | moderate but significant decreases | statistically significant inhibition
